The numbers were not newly measured in US6673908B1, “Tumor necrosis factor receptor 2” (Nuvelo, Inc., priority 1999, dated 2004), which cites them from elsewhere.

Where a name gives a salt, the structure may show the parent alone. Read-outs that look alike come from different tables or passages of the source.

Series [1] relates to CD3 lymphocytes. The conditions noted are these: in vivo.
Series [2] deals with hepatitis C virus (HCV).
Series [3] concerns β2-adrenergic receptor.
The target of series [4] is T1, 5-lipoxygenase (5-LO) (Homo sapiens, UniProt P09917).
T1 construct: host or cells: asthma patients (in vivo, endogenous enzyme)
T1 sequence (P09917 1-674): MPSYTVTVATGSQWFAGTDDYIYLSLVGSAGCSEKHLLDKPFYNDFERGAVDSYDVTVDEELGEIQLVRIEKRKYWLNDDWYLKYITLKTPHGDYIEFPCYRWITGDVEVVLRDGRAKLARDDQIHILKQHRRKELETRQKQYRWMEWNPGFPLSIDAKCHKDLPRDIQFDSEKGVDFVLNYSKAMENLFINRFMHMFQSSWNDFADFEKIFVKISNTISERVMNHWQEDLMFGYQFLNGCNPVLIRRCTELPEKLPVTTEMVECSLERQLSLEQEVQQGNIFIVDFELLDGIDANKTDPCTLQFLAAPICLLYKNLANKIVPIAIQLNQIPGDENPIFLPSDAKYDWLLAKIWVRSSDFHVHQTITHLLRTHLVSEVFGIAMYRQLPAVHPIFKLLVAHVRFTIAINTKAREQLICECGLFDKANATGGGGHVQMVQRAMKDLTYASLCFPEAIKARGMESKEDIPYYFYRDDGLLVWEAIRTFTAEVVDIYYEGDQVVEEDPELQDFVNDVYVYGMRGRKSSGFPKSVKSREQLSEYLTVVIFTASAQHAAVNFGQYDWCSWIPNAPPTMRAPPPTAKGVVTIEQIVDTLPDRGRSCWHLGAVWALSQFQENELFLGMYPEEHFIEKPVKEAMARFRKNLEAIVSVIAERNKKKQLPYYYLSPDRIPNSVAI
The conditions noted are these: for FEV1, % change from baseline: high dose.

For series [5], the system named is advanced colorectal cancer.

Turning to `Nc1c2c(nc3ccccc13)CCCC2` [Cognex, tacrine hydrochloride], under “Alzheimer's disease patients”, the “patients showing no change or minimal worsening of their disease” value was “about 45%”. Under “Alzheimer's patients”, the patients minimally improved result is listed as “About 58%” and the patients much improved entry is “about 2%”.

For “Monoclonal antibody: murine monoclonal antibody to deplete the circulating CD3 lymphocytes; reacts with the T3 recognition site of T-lymphocytes”, in series [1], the sensitization rate is reported as 15-40% and the “treated patients producing human anti-mouse antibodies (HAMA)” value was 80%.

As to interferon alpha, in series [2] (hepatitis C virus infection), the “patients in whom viral infection is completely and permanently eliminated” value is listed as “less than a quarter of patients”; the “patients receiving virtually no benefit” value is given as “Nearly half of patients”. Moreover, in series [2] (patients with HCV genotype 1 (especially 1b)), the response rates entry is recorded as “under 10%”. Further, the response rates entry in series [2] (patients with HCV genotype 2 or 3) was “greater than 40%”.

In the case of `COc1ccc(CC(C)NCC(O)c2ccc(O)c(NC=O)c2)cc1` (stereo not shown) [Formoterol], the “Degree of Brochodilator Desensitisation after Formoterol Therapy: 6 Hour FEF25-75” value in series [3] (Arg 16 (n = 4)) was 23%; in series [3] (Gln27 (n = 5)) it was 38%; in series [3] (Glu/Gln27 (n = 11)) it was 70%; in series [3] (Gly 16 (n = 10)) it was 103%; in series [3] (Gly/Arg 16 (n = 8)), 70%. In addition, the “Degree of Brochodilator Desensitisation after Formoterol Therapy: 6 hour FEV1” value in series [3] (Arg 16 (n = 4)) is 28%; in series [3] (Gln27 (n = 5)) it was 47%; in series [3] (Glu/Gln27 (n = 11)), 65%; in series [3] (Gly 16 (n = 10)) it was 80%; in series [3] (Gly/Arg 16 (n = 8)), 57%. For the same compound, the “Degree of Brochodilator Desensitisation after Formoterol Therapy: Maximal FEF25-75” value is given as −35% in series [3] (Arg 16 (n = 4)); −15% in series [3] (Gln27 (n = 5)); 45% in series [3] (Glu/Gln27 (n = 11)); 73% in series [3] (Gly 16 (n = 10)); 50% in series [3] (Gly/Arg 16 (n = 8)). Besides, the “Degree of Brochodilator Desensitisation after Formoterol Therapy: Maximal FEV1” value is −8% in series [3] (Arg 16 (n = 4)); 3% in series [3] (Gln27 (n = 5)); 52% in series [3] (Glu/Gln27 (n = 11)); 48% in series [3] (Gly 16 (n = 10)); 48% in series [3] (Gly/Arg 16 (n = 8)). Moreover, the “mean FEV1 desensitisation” value in series [3] (Arg16 homozygotes) was 28%; in series [3] (Gly16 homozygotes), 80%.

Regarding `C[C@H](C#Cc1ccc(Cc2ccc(F)cc2)s1)N(O)C(N)=O` [ABT-761], the “FEV1, % change from baseline” value in series [4] (Mutant, Day 8) is recorded as 1.8%; in series [4] (Mutant, Day 84) it was 5%; in series [4] (Wild type, Day 8), 8.2%; in series [4] (Wild type, Day 84) it was 18.5%. Moreover, the “improvement of forced expiratory volume” value in series [4] (heterozygous patients, high-dose active treatment, within one week) was 23.3±6.0%; in series [4] (patients with mutant genotype, active 5-LO inhibitor treatment) it was −1.2±2.9%; in series [4] (wild-type patients, high-dose active treatment), 18.8±3.6%.

In the case of `O=c1[nH]cc(F)c(=O)[nH]1` [5-fluorouracil], in series [5], the “patients with a complete response (complete tumor disappearance)” value is reported as 1-5% and the “patients with an objective response” value is given as 20-40%.
